Here are results for eleven molecules from patent publication US20140200136A1, “Agricultural mixtures comprising arylquinazolinone compounds” (BASF SE, priority 2011, published 2014).

Like-named read-outs stand apart in the source and are kept apart here.

Holding throughout (type): cell-based
The subject of one test is Pyricularia oryzae. To be noted: single active.
In a further test the test system is Septoria tritici. The test can be described thus: Activity against leaf blotch on wheat caused by Septoria tritici (Septtr), microtiter plate test. The conditions noted are these: single active.
The subject of another test is Leptosphaeria nodorum. The test is described as follows: Activity against wheat leaf spots caused by Leptosphaeria nodorum (Leptno), microtiter plate test. The conditions noted are these: single active, 7 days after inoculation.

The molecule `O=C(Nc1ccccc1-c1ccc(Cl)cc1)c1cccnc1Cl` [Boscalid] showed an Observed efficacy with Pyricularia oryzae (16 ppm) of 8.
`Cc1cc(F)c(-n2cnc3ccc(F)cc3c2=O)cc1[S+]([O-])CC(F)(F)F` (stereo not drawn) [CE.I.31, 6-Fluoro-3-[2-fluoro-4-methyl-5-2(2,2,2-trifluoroethanesulfinyl)-phenyl]-3H-quinazolin-4-one]: the Observed efficacy in the test with Pyricularia oryzae (1 ppm) is listed as 8; in the test with Pyricularia oryzae (4 ppm), 11; with Pyricularia oryzae (63 ppm) it was 16; in the test on Septoria tritici (63 ppm), 19; with Leptosphaeria nodorum (concentration 63 ppm) it was 19.
Take `COC(=O)Nc1nc2ccccc2[nH]1` [Carbendazim]: the Observed efficacy with Pyricularia oryzae (0.25 ppm) was 19.
The molecule `N#Cc1c(Cl)c(Cl)c(Cl)c(C#N)c1Cl` [Chlorothalonil] registered an Observed efficacy with Pyricularia oryzae (0.25 ppm) of 30.
`Cc1ccc(-c2c(Cl)nc(C#N)n2S(=O)(=O)N(C)C)cc1` [Cyazofamid] yielded an Observed efficacy in the test on Pyricularia oryzae (1 ppm) of 10.
As for `CO/N=C(/C1=NOCCO1)c1ccccc1Oc1ncnc(Oc2ccccc2Cl)c1F` [Fluoxastrobin], in the test with Septoria tritici (0.25 ppm), the Observed efficacy is given as 58.
In the test with Septoria tritici (0.063 ppm), `Cn1cc(C(=O)Nc2ccccc2-c2cc(F)c(F)c(F)c2)c(C(F)F)n1` [Fluxapyroxad] gave an Observed efficacy of 58.
In turn, `CO/C=C(/C(=O)OC)c1ccccc1COc1cccc(C(F)(F)F)n1` [Picoxystrobin] had an Observed efficacy with Pyricularia oryzae (0.016 ppm) of 19.
As for `COC(=O)N(OC)c1ccccc1COc1ccn(-c2ccc(Cl)cc2)n1` [Pyraclostrobin], the Observed efficacy with Pyricularia oryzae (0.004 ppm) worked out at 32.
Regarding `CON=C(C(=O)OC)c1ccccc1CON=C(C)c1cccc(C(F)(F)F)c1` [Trifloxystrobin], in the test on Pyricularia oryzae (0.016 ppm), the Observed efficacy worked out at 26.
In the case of “zinc propylenebis(dithiocarbamate) polymer [Propineb, reference compound]”, in the test on Leptosphaeria nodorum (concentration 4 ppm), the Observed efficacy came out at 57.
